# Experimental data taken from patent US9738648B2, “Pyridines, pyrimidines, and pyrazines, as BTK inhibitors and uses thereof” (Merck Patent GmbH, priority 2013, dated 2017).
# Target: T1, full-length human BTK (Homo sapiens, UniProt Q06187)
# T1 construct: 2.5× stocks of full-length human BTK (08-080) from CarnaBio USA, Inc; purchased CarnaBio USA, Inc., Natick, Mass; 08-080
# Assay: BTK IC50 Enzyme Assay (Assay A), microfluidic off-chip mobility shift kinase assay
# Assay type: biochemical
# Conditions: kinKDR peptide substrate, 90 min at 27° C.
# Experimental: BTK IC50 Enzyme Assay (Assay A)
# The following describes a microfluidic, off-chip mobility shift kinase assay used to measure inherent potency of compounds against BTK enzyme.
# 2.5× stocks of full-length human BTK (08-080) from CarnaBio USA, Inc., Natick, Mass., 1.6×ATP and appropriate kinKDR peptide substrate (FITC-AHA-EEPLYWSFPAKKK10 NH2) were prepared in kinase reaction buffer consisting of 25 mM MgCl2, 0.015% Brij-35 (30%), 100 mM Hepes, pH 7.5, and 10 mM DTT.
# 5 uL of enzyme buffer and 7.5 uL of ATP/kinKDR peptide substrate mix were added to Matrix (#115304) 384-well, sterile, polypropylene plates (Thermo Fisher Scientific, 15 Hudson, N.H.) with 125 nL of serially diluted compounds prepared in 100% DMSO, and incubated for 90 min. at 27° C. Following the incubation period, reactions were stopped by adding 60 uL stop buffer consisting of 100 mM Hepes, pH 7.5, 0.015% Brij-35 (30%), 0.277% Coating Reagent #3 (Caliper Life Sciences, Mountain View, Calif.), 5% DMSO. Stopped reactions were monitored at −2 PSI, −3000 V/−700 V in a LabChip 3000 plate 20 reader from Caliper Life Sciences, a PerkinElmer Company (Hopkinton, Mass.), and the activity was measured by off-chip mobility shift assay measuring the charge/mass difference between substrate and product resulting from peptide phosphorilation. IC50 and efficacy were determined by plotting log [Inhibitor] vs. % Activity in GeneData Screener (Basel, Switzerland).
# T1 sequence (Q06187 whole entry): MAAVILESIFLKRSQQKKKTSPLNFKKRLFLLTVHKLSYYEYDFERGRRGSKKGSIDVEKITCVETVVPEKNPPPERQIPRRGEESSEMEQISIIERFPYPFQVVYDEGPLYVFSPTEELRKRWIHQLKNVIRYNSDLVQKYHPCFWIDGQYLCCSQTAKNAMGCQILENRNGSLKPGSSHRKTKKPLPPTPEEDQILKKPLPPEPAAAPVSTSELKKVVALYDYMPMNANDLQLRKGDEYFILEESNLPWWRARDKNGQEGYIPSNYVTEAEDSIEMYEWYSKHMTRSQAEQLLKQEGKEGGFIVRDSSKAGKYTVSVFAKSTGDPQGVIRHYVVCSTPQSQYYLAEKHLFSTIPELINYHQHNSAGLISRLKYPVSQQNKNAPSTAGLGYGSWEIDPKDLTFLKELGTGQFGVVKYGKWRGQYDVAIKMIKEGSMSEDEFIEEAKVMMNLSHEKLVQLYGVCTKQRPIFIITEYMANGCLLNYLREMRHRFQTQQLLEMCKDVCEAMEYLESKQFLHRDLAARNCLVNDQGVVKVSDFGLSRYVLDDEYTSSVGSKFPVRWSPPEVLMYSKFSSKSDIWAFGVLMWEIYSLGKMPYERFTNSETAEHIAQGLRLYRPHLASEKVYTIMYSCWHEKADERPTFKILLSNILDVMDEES
row,IC50,SMILES
1,< 0.1 µM,"C=CC(=O)N1CC(n2ccc3ncnc(Oc4ccc(Cc5ccccc5)cc4)c32)C1 [Compound 17, 1-(3-(4-(4-benzylphenoxy)-5H-pyrrolo[3,2-d]pyrimidin-5-yl)azetidin-1-yl)prop-2-en-1-one]"
2,< 0.1 µM,"CN(C)C/C=C/C(=O)N1CC[C@H](n2ccc3ncnc(Oc4ccc(Oc5ccccc5)cc4)c32)C1 [Compound 18, (S,E)-4-(dimethylamino)-1-(3-(4-(4-phenoxyphenoxy)-5H-pyrrolo[3,2-d]pyrimidin-5-yl)pyrrolidin-1-yl)but-2-en-1-one]"
3,< 0.1 µM,"CN(C)C/C=C/C(=O)N1CC(n2ccc3ncnc(Oc4ccc(Oc5ccccc5)cc4)c32)C1 [Compound 19, (E)-4-(dimethylamino)-1-(3-(4-(4-phenoxyphenoxy)-5H-pyrrolo[3,2-d]pyrimidin-5-yl)azetidin-1-yl)but-2-en-1-one]"
4,< 0.1 µM,"C=CC(=O)N1CC(Cn2ccc3ncnc(Oc4ccc(Oc5ccccc5)cc4)c32)C1 [Compound 20, 1-(3-((4-(4-phenoxyphenoxy)-5H-pyrrolo[3,2-d]pyrimidin-5-yl)methyl)azetidin-1-yl)prop-2-en-1-one]"
5,< 0.1 µM,"C=CC(=O)N[C@H]1C[C@H](n2ncc3ncnc(Oc4ccc(Oc5ccccc5)cc4)c32)C1 [Compound 21, N-((1r,3r)-3-(7-(4-phenoxyphenoxy)-1H-pyrazolo[4,3-d]pyrimidin-1-yl)cyclobutyl)acrylamide]"
6,< 0.1 µM,"C=CC(=O)N1CC(n2ccc3ncnc(Oc4ccc(Nc5ccccc5)cc4)c32)C1 [Compound 22, 1-(3-(4-(4-(phenylamino)phenoxy)-5H-pyrrolo[3,2-d]pyrimidin-5-yl)azetidin-1-yl)prop-2-en-1-one]"
7,< 0.1 µM,"C=CC(=O)N1CC(n2ncc3ncc(-c4ccc(Oc5ccccc5)cc4)nc32)C1 [Compound 23, 1-(3-(6-(4-phenoxyphenyl)-1H-pyrazolo[3,4-b]pyrazin-1-yl)azetidin-1-yl)prop-2-en-1-one]"
8,< 0.1 µM,"CN(C)C/C=C/C(=O)N1CC(n2ccc3ncc(-c4ccc(Oc5ccccc5)cc4)nc32)C1 [Compound 24, (E)-4-(dimethylamino)-1-(3-(3-(4-phenoxyphenyl)-5H-pyrrolo[2,3-b]pyrazin-5-yl)azetidin-1-yl)but-2-en-1-one]"
9,< 0.1 µM,"C=CC(=O)N1CC[C@H]1Cn1ccc2ncnc(Oc3ccc(Oc4ccccc4)cc3)c21 [Compound 25, (S)-1-(2-((4-(4-phenoxyphenoxy)-5H-pyrrolo[3,2-d]pyrimidin-5-yl)methyl)azetidin-1-yl)prop-2-en-1-one]"
10,< 0.1 µM,"C=CC(=O)NCCCn1ccc2ncnc(Oc3ccc(Oc4ccccc4)cc3)c21 [Compound 26, N-(3-(4-(4-phenoxyphenoxy)-5H-pyrrolo[3,2-d]pyrimidin-5-yl)propyl)acrylamide]"
11,< 0.1 µM,"C=CC(=O)N1CC(n2ccc3ncnc(Oc4ccc(Oc5ccc(F)cc5)cc4)c32)C1 [Compound 27, 1-(3-(4-(4-(4-fluorophenoxy)phenoxy)-5H-pyrrolo[3,2-d]pyrimidin-5-yl)azetidin-1-yl)prop-2-en-1-one]"
12,< 0.1 µM,"C=CC(=O)N1CC2(CC(n3ccc4ncnc(Oc5ccc(Oc6ccccc6)cc5)c43)C2)C1 [Compound 28, 1-(6-(4-(4-phenoxyphenoxy)-5H-pyrrolo[3,2-d]pyrimidin-5-yl)-2-azaspiro[3.3]heptan-2-yl)prop-2-en-1-one]"
13,< 0.1 µM,"C=CC(=O)N1CCC(Cn2ccc3ncnc(Oc4ccc(Oc5ccccc5)cc4)c32)C1 (stereo not shown) [Compound 29, 1-(3-((4-(4-phenoxyphenoxy)-5H-pyrrolo[3,2-d]pyrimidin-5-yl)methyl)pyrrolidin-1-yl)prop-2-en-1-one]"
14,< 0.1 µM,"CN(C)C/C=C/C(=O)N1CCCC(Cn2ccc3ncnc(Oc4ccc(Oc5ccccc5)cc4)c32)C1 (stereo not shown) [Compound 30, (E)-4-(dimethylamino)-1-(3-((4-(4-phenoxyphenoxy)-5H-pyrrolo[3,2-d]pyrimidin-5-yl)methyl)piperidin-1-yl)but-2-en-1-one]"
15,0.1 to 1 µM,"CC1=CC(C)=[N+]2C1=Cc1ccc(CCC(=O)NCCN3CCN(C/C=C/C(=O)N4CC(n5ccc6ncnc(Oc7ccc(Oc8ccccc8)cc7)c65)C4)CC3)n1[B-]2(F)F [Compound 32, (E)-5,5-difluoro-1,3-dimethyl-7-(3-oxo-3-((2-(4-(4-oxo-4-(3-(4-(4-phenoxyphenoxy)-5H-pyrrolo[3,2-d]pyrimidin-5-yl)azetidin-1-yl)but-2-en-1-yl)piperazin-1-yl)ethyl)amino)propyl)-5H-dipyrrolo[1,2-c:2′,1′-f][1,3,2]diazaborinin-4-ium-5-uide]"
16,0.1 to 1 µM,"CN(C)C/C=C/C(=O)N[C@H]1C[C@H](n2ccc3ncnc(Oc4ccc(Oc5ccccc5)cc4)c32)C1 [Compound 33, (E)-4-(dimethylamino)-N-(trans-3-(4-(4-phenoxyphenoxy)-5H-pyrrolo[3,2-d]pyrimidin-5-yl)cyclobutyl)but-2-enamide]"
17,0.1 to 1 µM,"C=CC(=O)N1CC[C@@H](n2ccc3ncnc(Oc4ccc(Oc5ccccc5)cc4)c32)C1 [Compound 34, (R)-1-(3-(4-(4-phenoxyphenoxy)-5H-pyrrolo[3,2-d]pyrimidin-5-yl)pyrrolidin-1-yl)prop-2-en-1-one]"
18,0.1 to 1 µM,"C=CC(=O)N1CC(n2ccc3ncnc(Oc4ccc(NC(=O)c5ccccc5)cc4)c32)C1 [Compound 35, N-(4-((5-(1-acryloylazetidin-3-yl)-5H-pyrrolo[3,2-d]pyrimidin-4-yl)oxy)phenyl)benzamide]"

# The remaining lines, values behind:
row,SMILES,IC50
1,"CN(C)C/C=C/C(=O)N1CCC(n2ccc3ncnc(Oc4ccc(Oc5ccccc5)cc4)c32)CC1 [Compound 1, (E)-4-(dimethylamino)-1-(4-(4-(4-phenoxyphenoxy)-5H-pyrrolo[3,2-d]pyrimidin-5-yl)piperidin-1-yl)but-2-en-1-one]",< 0.1 µM
2,"C=CC(=O)N1CCC(n2ccc3ncnc(Oc4ccc(Oc5ccccc5)cc4)c32)CC1 [Compound 2, 1-(4-(4-(4-phenoxyphenoxy)-5H-pyrrolo[3,2-d]pyrimidin-5-yl)piperidin-1-yl)prop-2-en-1-one]",< 0.1 µM
3,"C=CC(=O)N1CC(n2ccc3ncc(-c4ccc(Oc5ccccc5)cc4)cc32)C1 [Compound 4, 1-(3-(6-(4-phenoxyphenyl)-1H-pyrrolo[3,2-b]pyridin-1-yl)azetidin-1-yl)prop-2-en-1-one]",< 0.1 µM
4,"C=CC(=O)N1CC[C@H](n2ccc3ncnc(Oc4ccc(Oc5ccccc5)cc4)c32)C1 [Compound 5, (S)-1-(3-(4-(4-phenoxyphenoxy)-5H-pyrrolo[3,2-d]pyrimidin-5-yl)pyrrolidin-1-yl)prop-2-en-1-one]",< 0.1 µM
5,"C=CC(=O)N1CC(n2ccc3ncnc(Nc4ccc(Oc5ccccc5)cc4)c32)C1 [Compound 6, 1-(3-(4-((4-phenoxyphenyl)amino)-5H-pyrrolo[3,2-d]pyrimidin-5-yl)azetidin-1-yl)prop-2-en-1-one]",< 0.1 µM
6,"C=CC(=O)N1CC(n2ccc3ncc(-c4ccc(Oc5ccccc5)cc4)nc32)C1 [Compound 7, 1-(3-(3-(4-phenoxyphenyl)-5H-pyrrolo[2,3-b]pyrazin-5-yl)azetidin-1-yl)prop-2-en-1-one]",< 0.1 µM
7,"C=CC(=O)N[C@H]1C[C@H](n2ccc3ncnc(Oc4ccc(Oc5ccccc5)cc4)c32)C1 [Compound 8, N-(trans-3-(4-(4-phenoxyphenoxy)-5H-pyrrolo[3,2-d]pyrimidin-5-yl)cyclobutyl)acrylamide]",< 0.1 µM
8,"C=CC(=O)N1CC[C@@H]1Cn1ccc2ncnc(Oc3ccc(Oc4ccccc4)cc3)c21 [Compound 9, (R)-1-(2-((4-(4-phenoxyphenoxy)-5H-pyrrolo[3,2-d]pyrimidin-5-yl)methyl)azetidin-1-yl)prop-2-en-1-one]",< 0.1 µM
9,"C=CC(=O)N[C@H]1C[C@@H](n2ncc3ncnc(Oc4ccc(Oc5ccccc5)cc4)c32)C1 [Compound 11, N-((1s,3s)-3-(7-(4-phenoxyphenoxy)-1H-pyrazolo[4,3-d]pyrimidin-1-yl)cyclobutyl)acrylamide]",< 0.1 µM
10,"C=CC(=O)N1CCC(n2ncc3ncnc(Oc4ccc(Oc5ccccc5)cc4)c32)CC1 [Compound 12, 1-(4-(7-(4-phenoxyphenoxy)-1H-pyrazolo[4,3-d]pyrimidin-1-yl)piperidin-1-yl)prop-2-en-1-one]",< 0.1 µM
11,"CN(C)C/C=C/C(=O)N1CCC(n2ncc3ncnc(Oc4ccc(Oc5ccccc5)cc4)c32)CC1 [Compound 14, (E)-4-(dimethylamino)-1-(4-(7-(4-phenoxyphenoxy)-1H-pyrazolo[4,3-d]pyrimidin-1-yl)piperidin-1-yl)but-2-en-1-one]",< 0.1 µM
12,"C=CC(=O)N1CCCC(Cn2ccc3ncnc(Oc4ccc(Oc5ccccc5)cc4)c32)C1 (stereo not shown) [Compound 15, 1-(3-((4-(4-phenoxyphenoxy)-5H-pyrrolo[3,2-d]pyrimidin-5-yl)methyl)piperidin-1-yl)prop-2-en-1-one]",< 0.1 µM
13,"C=CC(=O)N1CC(n2ccc3ncnc(Oc4ccc(OCc5ccccc5)cc4)c32)C1 [Compound 16, 1-(3-(4-(4-(benzyloxy)phenoxy)-5H-pyrrolo[3,2-d]pyrimidin-5-yl)azetidin-1-yl)prop-2-en-1-one]",< 0.1 µM
